In patent publication US8329218B2, “Unusually stable glasses and methods for forming same” (Wisconsin Alumni Research Foundation, priority 2007, dated 2012):

What was measured:
[1] = Differential scanning calorimetry of glass stability (onset temperature, fictive temperature, θK); type: physicochemical; conditions: for Tg (onset temperature) of ordinary glass: ordinary glass cooled from the liquid; for enthalpies and Tfic values of vapor-deposited samples relative to ordinary glass: samples prepared by vapor deposition
Text: Differential scanning calorimetry (DSC) was used to examine the kinetics and thermodynamics of vapor-deposited samples created by heating crystalline TNB or IMC in a vacuum. To move a sample from the glass to the supercooled liquid, energy must be supplied to the sample. In DSC, this energy is supplied as heat to the system as the temperature is ramped from a temperature below the glass transition into the supercooled liquid regime. For an ordinary glass that is cooled from the melt the amount of energy needed to do this is observed by a change in heat capacity at Tg. […] An endothermic heat characteristic will be observed in these cases, often referred to as an enthalpy overshoot, where the size and temperature of the overshoot indicate the amount of stability.
This scan was continued to above the melting point, after which the sample was cooled at 40 K/min into the glass and then scanned again to yield the leftmost curve. This latter-curve represents the behavior of an ordinary glass of TNB, with Tg=347 K, as defined by the onset temperature; it is consistent with previously reported results for TNB (C. M. Whitaker, R. J. McMahon J. Phys. Chem. 100, 1081 (1996); J. H. Magill, J. Chem. Phys. 47, 2802 (1967)). The DSC instrument was calibrated using an indium standard.
The fictive-temperature (Tfic) of the glasses, as defined below, was calculated in order to quantify the thermodynamic stability of the vapor-deposited materials. Lower Tfic values indicate a lower position on the energy landscape. The enthalpy for TNB and IMC samples, obtained by integrating Cp, is plotted in FIG. 1B. […] The supercooled liquid enthalpy curve was calculated by determining the temperature dependence of the enthalpy between the glass transition and the melting point and extrapolating this dependence to lower temperatures. […] Based upon aging experiments on TNB (D. J. Plazek, J. H. Magill, J. Chem. Phys. 45, 3038 (1966)), it is estimated that it would require at least 40 years of annealing an ordinary glass to match Tfic for the vapor-deposited sample shown in FIG. 1.
The Kauzmann temperature and θK were also calculated. For TNB, Magill estimated TK=270 K (J. H. Magill, J. Chem. Phys. 47, 2802 (1967)). […] In comparison, annealing the ordinary glass at 296 K (θK=0.09) or 328 K (θK=0.22) is relatively ineffective. […] Of annealing achieved θK≦0.17 (A. J. Kovacs, Fortschr Hochpolym-Forsch. 3, 394 (1963)).

[2] = Quasi-isothermal temperature modulated DSC: transformation of glass to supercooled liquid; type: physicochemical; conditions: ordinary glass; Tanneal 319 K
Experimental: The stable glass was prepared by vapor depositing IMC onto an aluminum substrate using the method described in Example 1, above. The substrate was held at a temperature of 265 K and a deposition rate of 2 Å/s was used. For comparison, an “ordinary” glass sample was also prepared by melting the vapor-deposited IMC glass and cooling the resulting liquid at a rate of 40 K/min.
The kinetic stability of the stable IMC glass was explored in quasi-isothermal temperature modulated differential scanning calorimetry (qi-TMDSC) experiments. In these experiments a TA instruments Q2000 DSC was used. After vapor deposition, the samples were placed in the DSC at room temperature. A temperature jump from room temperature to the annealing-temperature was carried out. At room temperature the sample was a glass, and the annealing temperature was chosen such that it was higher than the ordinary glass Tg (315 K). The temperature jump defines t=0. In addition to the instantaneous temperature jump a small sinusoidal temperature fluctuation was imposed (amplitude: 0.5: K, period: 60 seconds) which allows; one to measure the reversing heat capacity as a function of time.

[3] = Water uptake: weight change as a function of relative humidity (sorption apparatus); type: physicochemical
Experimental: The stable glass was prepared by vapor depositing IMC onto an aluminum substrate using the method described in Example 1, above. The substrate was held at a temperature of 265 K and a deposition rate of 2 Å/s was used. For comparison, two “ordinary” glass samples were also prepared. These were formed by vapor-deposition at 315 K. In addition, water uptake was measured for a crystalline IMC glass. Weight change as a function of relative humidity was measured for the ordinary glasses, stable glass, and crystalline IMC. The multiple curves for a given sample are from cycles where the relative humidity (RH) was stepped up and back down. A TA instruments Q5000SA sorption apparatus was used to induce relative humidity step changes and measure the steady-state weight change response. For the crystalline IMC (lowest curve), at 50% RH less than 0.1% weight change was observed. By contrast: the ordinary glass (uppermost curves) absorbed nearly one weight percent at a RH of 50%. The measured percent weight change observed here matches previous data obtained for ordinary IMC glasses and crystalline IMC by Zografi and coworkers. (See Andronis et al., J. Pharm. Sci. 86, 346 (1997).)

[4] = DSC of glasses made in a sublimation apparatus; conditions: vapor deposition by sublimation, 8 mTorr
Text: A glass container that could be evacuated was used as a sublimation chamber. The lower part of the container held the material to be sublimed (“source material”). A condenser cooled by a circulating coolant was positioned above the source material. At the bottom of the condenser were attached a silicon wafer or aluminum DSC pans, which serves as surfaces for vapor deposition. The source material was heated to sublime by submerging the bottom the sublimation apparatus in an oil bath. The vapor produced by sublimation was deposited on the cooled collecting surfaces. The vacuum maintained during the operation of this device was 8 mTorr. A metal plate was placed over the source material until vapor deposition was to begin, at which time it was withdrawn magnetically. The sublimation rate was controlled by varying the oil bath temperature.
Curve 1 corresponds to a glass prepared by vapor deposition onto a DSC pan held, at approximately Tg−50 K at a rate of ˜0.2 nm/s. Curve 2 corresponds to an ordinary glass, produced by cooling the liquid at a rate of 10 K/min. […] Curve 1 corresponds to a glass prepared by vapor deposition onto a DSC pan at approximately Tg−50 K at a rate of ˜0.4 nm is. […] Curve 2 corresponds to an ordinary glass produced by cooling the liquid at 10 K/min.

[5] = estimated by Magill; cited from earlier work
[6] = Density of vapor-deposited films by x-ray reflectivity; type: physicochemical; conditions: deposition at 296 K
Text: The present vapor-deposition methods can also create unusually dense glasses. The ratio of the density of vapor-deposited TNB (ρVD) to that of the ordinary glass (ρo, prepared by cooling from the liquid), increases as the deposition temperature is lowered toward 0.85 Tg (FIG. 2). Also shown as the solid line is a prediction of the density if vapor-deposition produced an equilibrium supercooled liquid at the deposition temperature (D. J. Plazek, J. H. Magill, J. Chem. Phys. 45, 3038 (1966)). For this range of deposition temperatures, the samples nearly achieve this upper bound for density. If a fictive temperature is defined based upon density, deposition at 296 K produces Tfic≈300 K, slightly lower than the fictive temperature based upon the enthalpy. Fictive temperatures based on densities can be determined from FIG. 2, by horizontally shifting the points to overlap with the line shown.
The data in FIG. 2 were determined from x-ray reflectivity measurements made on as-prepared films of TNB and on the same films after thermal equilibration above Tg. All x-ray data was taken at room temperature. […] Since the area of the film was the same before and after annealing, the ratio of the densities equals the inverse of the ratio of the thicknesses, and this is reported in FIG. 2. […]

[7] = at 342 K; cited from earlier work
[8] = Neutron reflectivity of interdiffusion in h-TNB/d-TNB multilayer films during annealing; type: physicochemical
Experimental: Neutron reflectivity was used to characterize diffusion in ordinary and stable glasses of TNB. The high spatial resolution and large contrast in the scattering length of neutrons for hydrogen and deuterium nuclei make this an excellent technique for quantifying molecular motion. The neutron reflectivity experiments were conducted at the NIST Center for Neutron Research at the National Institute of Standards and Technology (NCNR-NIST). The NG7 horizontal reflectometer utilized a 4.76 Å collimated neutron beam, with a wavelength divergence of 0.18 Å. The angular divergence of the beam was varied through the reflectivity scan and this provided a relative q resolution Δq/q=0.04 (q=4π sin θ/λ, where θ is the incident and final angle with respect to the surface of the film, and where λ is the neutron wavelength).
For the neutron reflectivity measurements, multilayer thin films of protio TNB (h-TNB) and deuterio TNB (d-TNB) were deposited onto 76-mm-diameter, 3-mm-thick silicon-wafers (Wafer World and Virginia Semiconductor), as described in S. F. Swallen, et al., J. Chem. Phys. 124, 184501 (2006). The silicon was used as received, retaining the native oxide coating. The deposition rate was typically 0.1 nm/s. Prior to deposition, the substrate was spin-coated with a 10-nm polystyrene layer (Polymer Source, ˜10^6 g/mol), which acted to minimize crystallization and dewetting of the TNB film during annealing. The polystyrene was made from a mixture of protio and perdeuterio chains, in order, to approximately match the neutron scattering length density of the first h-TNB layer. Following deposition, the samples were slowly cooled and held at room temperature for 1 to 5 days before neutron reflectivity measurements were obtained. The specular reflectivity R was measured as a function of beam angle relative to the sample surface. This value, multiplied by q^4 for clarity, is plotted as a function of the wavevector q. Reflectivity curves for samples vapor-deposited at different temperatures display diffraction peaks; as expected for the symmetric multi-layer samples, only odd diffraction orders are, present. For samples deposited at low temperature, diffraction can be observed up to the 13th order, indicating very sharp h-TNB/d-TNB interfaces. (S. F. Swallen et al; Science 315, 353 (2.007)). […]
FIG. 4A illustrates the behavior of an ordinary glass annealed near Tg; as shown elsewhere (S. F. Swallen et al., J. Chem. Phys. 124, 184501 (2006)), interdiffusion in this sample is characteristic of the equilibrium liquid. […] The magnitude of this stability can be quantified in terms of the equilibrium structural relaxation time τα, known to be 250 s at 342 K (R. Richert, K. Duvvuri, L.-T. Duong, J. Chem. Phys. 118, 1828 (2003)). […]

Row | SMILES | Tg (onset temperature) of ordinary glass [1] [K] | enthalpies and Tfic values of vapor-deposited samples relative to ordinary glass [1] | response to temperature jump (transformation to supercooled liquid) [2] | weight change (water uptake) ([3]; crystalline, 50% RH) | weight change (water uptake) ([3]; ordinary glass (vapor-deposited at 315 K), RH of 50%) | water uptake of stable glass relative to ordinary glass ([3]; relative humidity of 50%) | weight change (water uptake) ([3]; stable glass (vapor-deposited at 265 K, 2 Å/s), relative humidity of 50%) [weight percent] | stability of glass made in sublimation apparatus [4] | annealing time of an ordinary glass required to match Tfic of the vapor-deposited sample ([1]; estimated from aging experiments) | onset temperature ([1]; glass vapor-deposited onto substrate at 296 K, DSC heating 10 K/min) [K] | θK ([1]; ordinary glass annealed at 296 K) | θK ([1]; ordinary glass annealed at 328 K) | θK ([1]; vapor deposition at 296 K (0.85Tg)) | Kauzmann temperature TK [5] [K] | Tfic (fictive temperature based upon density) [6] | equilibrium structural relaxation time τα [7] [s] | interdiffusion of h-TNB/d-TNB during annealing ([8]; deposited at 296 K, 16 hours of annealing at 342 K) | interdiffusion of h-TNB/d-TNB during annealing ([8]; deposited at 330 K, 8 hours of annealing at 342 K) | induction time before diffusion ([8]; sample deposited at 0.85Tg, annealed at 342 K) | surface diffusion coefficient ([8]; vapor-deposited at 296 K, 0.1 nm/sec, order-of-magnitude estimate)
1 | COc1ccc2c(c1)c(CC(=O)O)c(C)n2C(=O)c1ccc(Cl)cc1 [IMC, indomethacin] | 315 | considerably lower | nearly instantaneous | less than 0.1% | one | one sixth | 0.15 |  |  |  |  |  |  |  |  |  |  |  |  | 
2 | CCC1(c2ccccc2)C(=O)NC(=O)NC1=O [phenobarbital] |  |  |  |  |  |  |  | low fictive temperatures |  |  |  |  |  |  |  |  |  |  |  | 
3 | c1ccc2cc(-c3cc(-c4cccc5ccccc45)cc(-c4cccc5ccccc45)c3)ccc2c1 [TNB, 1,3-bis-(1-naphthyl)-5-(2-naphthyl)benzene] | 347 | considerably lower |  |  |  |  |  |  | at least 40 years | 363 | 0.09 | 0.22 | 0.43 | 270 | ≈ 300 K | 250 | no detectable interdiffusion occurred | substantial interfacial broadening had occurred | exceeds 200 τα | 5×10^−16 cm^2/sec
